Data on 15 compounds can be found in US9611262B2, “Substituted 2-azabicycles and their use as orexin receptor modulators” (JANSSEN PHARMACEUTICA NV, priority 2014, dated 2017).

pKi: −log10 of the molar value.

The target of one assay is rat orexin 1 receptor (Rattus norvegicus, UniProt P56718). Put plainly: Rat orexin 1 receptor radioligand binding (competitive). To be noted: HEK293 cells stably expressing rat orexin 1 receptor; 4 nM radioligand; averages of 2-20 runs; read-out: rOX1 Ki. Summed up:
(§1)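 Competition binding used HEK293 cells expressing rat OX1 or CHO cells expressing human OX1, with 4 nM final [3H]-labelled thiazolyl-oxadiazolyl-pyrrolidinyl methanone radioligand in PBS. Compounds were tested at 7 concentrations (0.1 nM–10 μM) for 60 min at room temperature, then filtered; 10 μM almorexant defined nonspecific binding. Ki was derived from the one-site IC50 and the radioligand Kd.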

The target in the next assay is human orexin 2 receptor (Homo sapiens (Human), UniProt O43614). Description: Human orexin 2 receptor radioligand binding ([3H]-EMPA competition). To be noted: HEK293 stably expressing human orexin 2 receptor; 2 nM [3H]-EMPA; averages of 2-20 runs; read-out: hOX2 Ki. Summed up: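 Membranes-free whole HEK293 cells stably expressing human OX2 receptor incubated with [3H]-EMPA and compound (7 concentrations, 0.1 nM–10 μM, ≤0.1% DMSO) for 60 min at room temperature; nonspecific binding with 10 μM almorexant. Filtration and scintillation counting; one-site IC50 converted to Ki using predetermined Kd, triplicates averaged over 2-20 runs.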
human orexin 2 receptor, sequence (O43614 whole entry): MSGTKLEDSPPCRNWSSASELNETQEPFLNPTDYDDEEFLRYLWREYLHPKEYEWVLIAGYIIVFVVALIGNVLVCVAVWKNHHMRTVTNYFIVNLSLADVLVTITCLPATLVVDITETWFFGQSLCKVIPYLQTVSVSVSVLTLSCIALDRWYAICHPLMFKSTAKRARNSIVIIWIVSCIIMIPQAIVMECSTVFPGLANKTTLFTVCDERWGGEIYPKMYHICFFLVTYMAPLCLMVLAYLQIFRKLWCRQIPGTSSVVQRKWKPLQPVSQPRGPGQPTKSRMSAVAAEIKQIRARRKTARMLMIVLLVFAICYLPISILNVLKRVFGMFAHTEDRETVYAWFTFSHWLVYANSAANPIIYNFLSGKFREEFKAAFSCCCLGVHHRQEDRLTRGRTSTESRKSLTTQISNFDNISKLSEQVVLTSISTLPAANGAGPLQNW

Another assay concerns the target human orexin 1 receptor (Homo sapiens (Human), UniProt O43613). Description: Human orexin 1 receptor radioligand binding (competitive). To be noted: CHO cells stably expressing human orexin 1 receptor; 4 nM radioligand; averages of 2-20 runs; read-out: hOX1 Ki. Summed up:
as §1

As usually defined, the pKi is the negative decadic logarithm of the Ki, by convention in mol/L.

human orexin 1 receptor, sequence (O43613 whole entry): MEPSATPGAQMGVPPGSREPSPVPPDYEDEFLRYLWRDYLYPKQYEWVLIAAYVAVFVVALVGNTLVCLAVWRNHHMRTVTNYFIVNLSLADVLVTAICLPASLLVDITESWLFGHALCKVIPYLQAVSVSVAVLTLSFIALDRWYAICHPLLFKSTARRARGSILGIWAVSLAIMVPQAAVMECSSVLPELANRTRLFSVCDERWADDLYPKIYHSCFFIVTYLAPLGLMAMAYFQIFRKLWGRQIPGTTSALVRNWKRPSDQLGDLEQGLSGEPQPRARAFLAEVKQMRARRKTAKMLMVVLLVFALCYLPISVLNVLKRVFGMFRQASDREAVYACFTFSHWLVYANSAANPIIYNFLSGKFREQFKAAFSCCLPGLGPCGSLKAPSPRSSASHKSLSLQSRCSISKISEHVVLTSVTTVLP

Consider `COc1ccc(C(=O)N2[C@H](C)[C@H]3C[C@@H](Oc4cnc(C(F)(F)F)cn4)[C@@H]2C3)c(-n2nccn2)c1` (relative stereo) [Example 57, (4-methoxy-2-(2H-1,2,3-triazol-2-yl)phenyl)((1S*,3R*,4R*,6R*)-3-methyl-6-((5-(trifluoromethyl)pyrazin-2-yl)oxy)-2-azabicyclo[2.2.1]heptan-2-yl)methanone], for which the negative-log Ki (pKi) was 7.82 on rat orexin 1 receptor, below 5.00 on human orexin 2 receptor and 8.00 at human orexin 1 receptor.

As for `C[C@@H]1[C@H]2C[C@@H](Nc3ccc(C(F)(F)F)cn3)[C@H](C2)N1C(=O)c1ncccc1-c1ncccn1` (relative stereo) [Example 62, ((1S*,3R*,4S*,6R*)-3-methyl-6-((5-(trifluoromethyl)pyridin-2-yl)amino)-2-azabicyclo[2.2.1]heptan-2-yl)(3-(pyrimidin-2-yl)pyridin-2-yl)methanone], the pKi was 8.30 at rat orexin 1 receptor, 6.44 at human orexin 2 receptor and 8.40 on human orexin 1 receptor.

Turning to `Cc1ccc(-n2nccn2)c(C(=O)N2[C@H](C)[C@H]3C[C@@H](Nc4ccc(C(F)(F)F)cn4)[C@@H]2C3)n1` (relative stereo) [Example 63, (6-methyl-3-(2H-1,2,3-triazol-2-yl)pyridin-2-yl)((1S*,3R*,4S*,6R*)-3-methyl-6-((5-(trifluoromethyl)pyridin-2-yl)amino)-2-azabicyclo[2.2.1]heptan-2-yl)methanone], the pKi on rat orexin 1 receptor was 8.52; on human orexin 2 receptor, 7.11; at human orexin 1 receptor, 8.40.

In the case of `Cc1ccc(-n2nccn2)c(C(=O)N2[C@H](C)[C@H]3C[C@@H](Oc4cnc5cc(F)ccc5n4)[C@@H]2C3)n1` (relative stereo) [Example 186, ((1S*,3R*,4R*,6R*)-6-((6-fluoroquinoxalin-2-yl)oxy)-3-methyl-2-azabicyclo[2.2.1]heptan-2-yl)(6-methyl-3-(2H-1,2,3-triazol-2-yl)pyridin-2-yl)methanone], the pKi at rat orexin 1 receptor was 7.74; at human orexin 2 receptor, 6.90; at human orexin 1 receptor, 7.92.

Regarding `C[C@@H]1[C@H]2C[C@@H](Oc3cnc4cc(F)ccc4n3)[C@H](C2)N1C(=O)c1cccc(F)c1-n1nccn1` (relative stereo) [Example 187, (3-fluoro-2-(2H-1,2,3-triazol-2-yl)phenyl)((1S*,3R*,4R*,6R*)-6-((6-fluoroquinoxalin-2-yl)oxy)-3-methyl-2-azabicyclo[2.2.1]heptan-2-yl)methanone], the pKi is 8.15 at rat orexin 1 receptor, 6.87 at human orexin 2 receptor and 8.22 at human orexin 1 receptor.

As for `C[C@@H]1[C@H]2C[C@@H](Oc3cnc4cc(F)ccc4n3)[C@H](C2)N1C(=O)c1ccccc1-n1nccn1` (relative stereo) [Example 188, (2-(2H-1,2,3-triazol-2-yl)phenyl)((1S*,3R*,4R*,6R*)-6-((6-fluoroquinoxalin-2-yl)oxy)-3-methyl-2-azabicyclo[2.2.1]heptan-2-yl)methanone], the pKi is 8.22 at rat orexin 1 receptor, 6.97 at human orexin 2 receptor and 8.15 on human orexin 1 receptor.

Consider `Cc1ccc(-n2nccn2)c(C(=O)N2[C@H](C)[C@H]3C[C@@H](Oc4cnc5cc(F)c(F)cc5n4)[C@@H]2C3)n1` (relative stereo) [Example 189, ((1S*,3R*,4R*,6R*)-6-((6,7-difluoroquinoxalin-2-yl)oxy)-3-methyl-2-azabicyclo[2.2.1]heptan-2-yl)(6-methyl-3-(2H-1,2,3-triazol-2-yl)pyridin-2-yl)methanone], for which the pKi on rat orexin 1 receptor is 7.39; on human orexin 2 receptor, 6.96; on human orexin 1 receptor, 7.38.

As for `CC1C2CC(Oc3ccc(C(F)(F)F)cn3)C(C2)N1C(=O)c1cccc(F)c1-c1ncccn1` (single isomer, unassigned) [Example 1, (R/S)-(3-fluoro-2-(pyrimidin-2-yl)phenyl)(3-methyl-6-((5-(trifluoromethyl)pyridin-2-yl)oxy)-2-azabicyclo[2.2.1]heptan-2-yl)methanone], the pKi was 7.62 on rat orexin 1 receptor, 5.28 on human orexin 2 receptor and 7.08 at human orexin 1 receptor.

Regarding `CC1C2CC(Oc3ccc(C(F)(F)F)cn3)C(C2)N1C(=O)c1cccc(F)c1-c1ncccn1` (single isomer, unassigned) [Example 8, (R/S)-(3-fluoro-2-(pyrimidin-2-yl)phenyl)(3-methyl-6-((5-(trifluoromethyl)pyridin-2-yl)oxy)-2-azabicyclo[2.2.1]heptan-2-yl)methanone], the pKi on rat orexin 1 receptor is 7.96; on human orexin 2 receptor, 5.96; at human orexin 1 receptor it was 7.80.

Regarding `Cc1ccc(-c2ncccn2)c(C(=O)N2[C@H](C)[C@H]3C[C@@H](Nc4ccc(C(F)(F)F)cn4)[C@@H]2C3)n1` [Example 60, (6-methyl-3-(pyrimidin-2-yl)pyridin-2-yl)((1S,3R,4S,6R)-3-methyl-6-((5-(trifluoromethyl)pyridin-2-yl)amino)-2-azabicyclo[2.2.1]heptan-2-yl)methanone], the figures for the pKi at rat orexin 1 receptor, on human orexin 2 receptor and at human orexin 1 receptor were 7.80, 6.46 and 7.72, respectively.

As to `Cc1ccc(-c2ncccn2)c(C(=O)N2[C@H](CF)[C@@H]3CC[C@H]2[C@H](Oc2ccc(C(F)(F)F)cn2)C3)n1` [Example 74, ((1S,3S,4R,6R)-3-(fluoromethyl)-6-((5-(trifluoromethyl)pyridin-2-yl)oxy)-2-azabicyclo[2.2.2]octan-2-yl)(6-methyl-3-(pyrimidin-2-yl)pyridin-2-yl)methanone], the pKi at rat orexin 1 receptor was 7.32; at human orexin 2 receptor, 5.42; on human orexin 1 receptor, 7.46.

`O=C(c1ccccc1-c1ncccn1)N1[C@H](CF)[C@@H]2CC[C@H]1[C@H](Oc1ccc(C(F)(F)F)cn1)C2` [Example 75, ((1S,3S,4R,6R)-3-(fluoromethyl)-6-((5-(trifluoromethyl)pyridin-2-yl)oxy)-2-azabicyclo[2.2.2]octan-2-yl)(2-(pyrimidin-2-yl)phenyl)methanone]: the results for the pKi on rat orexin 1 receptor, at human orexin 2 receptor and at human orexin 1 receptor were 7.04, below 5.00 and 7.18, respectively.

`O=C(c1cc(F)ccc1-c1ncccn1)N1[C@H](CF)[C@@H]2CC[C@H]1[C@H](Oc1ccc(C(F)(F)F)cn1)C2` [Example 76, (5-fluoro-2-(pyrimidin-2-yl)phenyl)((1S,3S,4R,6R)-3-(fluoromethyl)-6-((5-(trifluoromethyl)pyridin-2-yl)oxy)-2-azabicyclo[2.2.2]octan-2-yl)methanone]: the pKi at rat orexin 1 receptor was 7.44; at human orexin 2 receptor it was below 5.00; at human orexin 1 receptor, 7.34.

Regarding `Cc1ccc(-n2nccn2)c(C(=O)N2[C@H](CF)[C@@H]3CC[C@H]2[C@H](Oc2ccc(C(F)(F)F)cn2)C3)n1` [Example 77, ((1S,3S,4R,6R)-3-(fluoromethyl)-6-((5-(trifluoromethyl)pyridin-2-yl)oxy)-2-azabicyclo[2.2.2]octan-2-yl)(6-methyl-3-(2H-1,2,3-triazol-2-yl)pyridin-2-yl)methanone], the results for the pKi on rat orexin 1 receptor, on human orexin 2 receptor and on human orexin 1 receptor were 7.89, 5.32 and 7.70, respectively.

Turning to `O=C(c1cc(F)ccc1-n1nccn1)N1[C@H](CF)[C@@H]2CC[C@H]1[C@H](Oc1ccc(C(F)(F)F)cn1)C2` [Example 78, (5-fluoro-2-(2H-1,2,3-triazol-2-yl)phenyl)((1S,3S,4R,6R)-3-(fluoromethyl)-6-((5-(trifluoromethyl)pyridin-2-yl)oxy)-2-azabicyclo[2.2.2]octan-2-yl)methanone], the results for the pKi at rat orexin 1 receptor, at human orexin 2 receptor and at human orexin 1 receptor were 6.91, below 5.00 and 6.99, respectively.
